The values below come from ChEMBL document CHEMBL4673389 (ACS Med Chem Lett, 2021).

Active and inactive are the calls of the source. The calls are words filed in the database; no cut-off is given here.

For the first assay, the target named is T1, Protein cereblon (Homo sapiens, UniProt Q96SW2). Nature of the assay: Competitive binding affinity to human CRBN-thalidomide binding domain expressed in Escherichia coli by FRET assay.
By Ki is commonly meant the dissociation constant of the complex between target and ligand, obtained from inhibition or displacement. `C[S+](C)[O-]` [DIMETHYL SULFOXIDE] registered a Ki of 137 µM.

For another assay, the target named is T2, Cereblon isoform 4 (Magnetospirillum gryphiswaldense, UniProt A4TVL0).
T2 sequence (A4TVL0 whole entry): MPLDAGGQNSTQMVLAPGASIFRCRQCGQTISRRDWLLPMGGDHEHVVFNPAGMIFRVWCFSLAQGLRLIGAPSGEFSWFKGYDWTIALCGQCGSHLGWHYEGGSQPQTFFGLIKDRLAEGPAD
Nature of the assay: Binding affinity to Magnetospirillum gryphiswaldense cereblon isoform 4 by measuring baseline corrected normalized fluorescence by MST based assay.
For orientation: IC50 means the concentration at which inhibition is half-maximal. A higher IC50 goes with a need for much substance. In turn, `O=C1CCC(=O)N1` [SUCCINIMIDE] registered an IC50 of 3.53 µM and a Ki of 0.642 µM.

A further assay has as its target T1, Protein cereblon. Nature of the assay: Binding affinity to human CRBN-thalidomide binding domain expressed in Escherichia coli by measuring baseline corrected normalized fluorescence by MST based assay.
In the case of `O=C1CNC(=O)N1` [HYDANTOIN], the IC50 turned out to be 421 µM and affinity was put at a Ki of 216 µM.
The compound `O=C1CCC(=O)N1` [SUCCINIMIDE] displayed an IC50 of 22.3 µM and a Ki of 8.19 µM.
Turning to `O=C1CN(/N=C/c2ncc(-c3ccc(Br)cc3)o2)C(=O)N1`, the outcome was inactive.
`O=C1CNCN1` showed an IC50 of over 5000 µM.
Regarding `O=c1ccn([C@@H]2O[C@H](COP(=O)(O)O)[C@@H](O)[C@H]2O)c(=O)[nH]1`, the IC50 is over 5000 µM.
Regarding `CN1CC(=O)NC1=O`, the IC50 came out at 137 µM and the Ki was found to be 67.8 µM.
Take `O=C1CN(/N=C/C=C/c2ccc([N+](=O)[O-])o2)C(=O)N1` [FURAZIDIN]: the IC50 was over 1000 µM.
Turning to `O=C1CN(/N=C/c2ccccc2)C(=O)N1`, the outcome was inactive.
Still for that read-out and setting: in the case of `O=C1CN(/N=C/c2ccccc2[N+](=O)[O-])C(=O)N1` it was “inactive”.
`NN1CC(=O)NC1=O` registered an IC50 of 447 µM and a Ki of 229 µM.
For `O=c1cc[nH]c(=O)[nH]1` [URACIL], the IC50 turned out to be 415 µM and affinity was put at a Ki of 212 µM.
Compound `COc1ccc(C2CNC(=O)C2)cc1OC1CCCC1` (stereo unspecified) [ROLIPRAM] gave an IC50 of 202 µM and a Ki of 102 µM.
Taken in the same sequence, the figures for `O=c1ccn([C@@H]2O[C@H](CO)[C@@H](O)[C@H]2O)c(=O)[nH]1` [URIDINE] were 757 µM and 390 µM.
`CC(C)OC(=O)[C@H](C)N[P@](=O)(OC[C@H]1O[C@@H](n2ccc(=O)[nH]c2=O)[C@](C)(F)[C@@H]1O)Oc1ccccc1` [SOFOSBUVIR] displayed an IC50 of over 1000 µM.
Turning to `O=C1CN(/N=C/c2ccc([N+](=O)[O-])o2)C(=O)N1`, the result was inactive.
The compound `COc1c(-c2ccc3cc(NS(C)(=O)=O)ccc3c2)cc(-n2ccc(=O)[nH]c2=O)cc1C(C)(C)C` [DASABUVIR] showed an IC50 of 15.6 µM and a Ki of 4.71 µM.
`Nn1ccc(=O)[nH]c1=O` showed an IC50 of 84.8 µM and a Ki of 40.7 µM.
As to `O=C1CNC(=S)N1` [THIOHYDANTOIN], the IC50 was 332 µM and the Ki was found to be 169 µM.
